According to patent US5760036A, “Aminediol protease inhibitors” (E. R. Squibb & Sons, Inc., priority 1995, dated 1998):
Counter-ions that a name gives are not always drawn.

Biological target: T1, HIV protease (Human immunodeficiency virus type 1 group M subtype B, UniProt P04585)
T1 construct: and purified protease
Assay: HIV Protease Assay
Type: biochemical
Settings: 10 μM inhibitor, 4% DMSO, 450 μM substrate, pH 5.5, 30 minutes at 37° C., RP-HPLC
How it was run: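 At a single final concentration of 10 μM (4% DMSO), inhibitors were added to a 30-minute, 37° C reaction of purified enzyme with 450 μM H2N-Val-Ser-Gln-Asn-(β-naphthyl-alanine)-Pro-Val-Ile-OH at pH 5.5 (sodium acetate, BSA). Hydrolysis was quantified by reverse-phase HPLC with 220 nm detection after acid quench.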

HIV Protease % Inhibition at 10 μM [%] | Compound
66 | CC(C)(C)OC(=O)N[C@@H](Cc1ccccc1)[C@H](O)CNC[C@@H](O)[C@H](Cc1ccccc1)NC(=O)OC1c2ccccc2CC1O (stereo partly drawn) [Compound 215, [1S-(1R*,2S*)(trans)]-[Iminobis[2-hydroxy-1-(phenylmethyl)-3,1-propanediyl)]biscarbamic acid, 1,1-dimethylethyl 2,3-dihydro-2-hydroxy-1H-inden-1-yl ester]
96 | CC(C)(CO)OC(=O)N[C@@H](Cc1ccccc1)[C@H](O)CNC[C@@H](O)[C@H](Cc1ccccc1)NC(=O)C1(O)CCCC1(C)C (single isomer, unassigned; isomer b) [Compound 369, [1S-[1R*,2S*(2S*,3R*)]]-[r3-[[3-[[(2,2-Dimethyl-1-hydroxycyclopentyl)-carbonyl]amino]-2-hydroxy-4-phenylbutyl]amino]-2-hydroxy-1-(phenylmethyl)propyl]carbamic acid, 2-hydroxy-1,1-dimethylethyl ester. isomer B]
89 | CC(C)(C)OC(=O)N[C@@H](Cc1ccccc1)[C@H](O)CNC[C@@H](O)[C@H](Cc1ccccc1)NC(=O)C(C)(O)c1ccccn1 (single isomer, unassigned; isomer b) [Compound 382, [1S-[1R*,2S*(2S*, 3R*)]]-[2-Hydroxy-3-[[2-hydroxy-3-[[2-hydroxy-1-oxo-2-(2-pyridinyl)propyl]amino]-4-phenylbutyl]amino]-1-(phenylmethyl)propyl]carbamic acid, 1.1-dimethylethyl ester, isomer B]

Same assay, conditions: pH 5.5, 10 μM inhibitor, 4% DMSO, 450 μM substrate, pH 5.5, 30 minutes at 37° C., RP-HPLC; read-out: HIV Protease % Inhibition at 10 μM

Compound | inhibition at 10 µM [%]
CC(C)(C)OC(=O)N[C@@H](Cc1ccccc1)[C@H](O)CNC[C@@H](O)[C@H](Cc1ccccc1)NC(=O)OC(C)(C)CCCN [Compound 180, [1S-(1R*,2S*)]-[Iminobis[2-hydroxy-1-(phenylmethyl)-3,1-propanediyl]biscarbamic acid, 4-amino-1,1-dimethylbutyl 1,1-dimethylethyl ester, fumarate (2:3) salt] | 73
CC(C)(C)OC(=O)N[C@@H](Cc1ccccc1)[C@H](O)CNC[C@@H](O)[C@H](Cc1ccccc1)NC(=O)OC1(C)CCCC1O (stereo partly drawn) [Compound 379, [1S-(1R*,2S*) (trans)]-[Iminobis[2-hydroxy-1-(phenylmethyl)-3,1-propanediyl]]bis[carbamic acid], 1,1-dimethylethyl 2-hydroxy-1-methylcyclopentyl ester] | 98
O=C(Cc1ccccc1)N[C@@H](Cc1ccccc1)[C@H](O)CNC[C@@H](O)[C@H](Cc1ccccc1)NC(=O)Cc1ccccc1 [Compound 83, [R-(R*,S*)]-N,N'-[Iminobis[2-hydroxy-1-(phenylmethyl)-3,1-propanediyl[bisbenzeneacetamide] | 19
CC(C)(C)OC(=O)N[C@@H](Cc1ccccc1)[C@H](O)CNC[C@@H](O)[C@H](Cc1ccccc1)NC(=O)OCc1nc2ccccc2[nH]1 [Compound 289, [R-(R*,S*)]-[Iminobis[2-hydroxy-1-(phenylmethyl)-3,1-propanediyl)]biscarbamic acid, (1H-benzimidazol-2-yl)methyl 1,1-dimethylethyl ester] | 53

Now from value to compound:

inhibition at 10 µM [%] | Compound
13 | CC(C)(C)OC(=O)NCC(O)(CNC[C@@H](O)[C@H](Cc1ccccc1)NC(=O)OC(C)(C)C)Cc1ccccc1 (stereo partly drawn) [Compound 191, [1S-(1R*,2S*)]-[3-[[3-[[(1,1-Dimethylethoxy)carbonyl]amino]-2-hydroxy-2-(phenylmethyl)propyl]amino]-2-hydroxy-1-(phenylmethyl)propyl]carbamic acid, 1,1-dimethyl-ethyl ester]
57 | CC(C)(C)OC(=O)N[C@@H](Cc1ccccc1)[C@H](O)CNC[C@@H](O)[C@@H](Cc1ccccc1)NC(=O)OC(C)(C)C [Compound 26i, [1R-[1R*,2R*(2R*,3S*)]]-3-[[3-[[(1,1-Dimethylethoxy)carbonyl]amino]-2-hydroxy-4-phenylbutyl]amino]-2-hydroxy-1-(phenylmethyl)propyl]carbamic acid, 1,1-dimethylethyl ester]
